From US20250388604A1, “Compounds and Their Use as PDE4 Activators” (Mironid Limited, priority 2022, published 2025) come the findings set out here.

One assay deals with m-IMCD3 cells. Put plainly: Inhibition of PGE2-stimulated in vitro cyst formation in m-IMCD3 cells. Format: cell-based, mouse. To be noted: Mus musculus, mIMCD3, 144 h, 3 μM; mean cyst area, 100% for (DMSO + PGE2) and 0% for DMSO control; 6 days of culture; read-out: % Cyst area after incubation with 3 μM test compound. The method in brief:
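Mean cyst area after 6 days, expressed relative to DMSO+PGE2 (100%) and DMSO alone (0%), from z-stack images. Mouse m-IMCD3 spheroids grew in collagen I/Matrigel gels and received PGE2 (100 nM final) with test compound (0.1% DMSO) starting 18–24 h post-plating, media refreshed at day 2 or 3.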
With `CC(OC1CCCC1)C(=O)N1CCc2nc(N3C4CCC3CNC4)sc2C1` (centres unmarked) [Example 169, 1-(2-(3,8-diazabicyclo[3.2.1]octan-8-yl)-6,7-dihydrothiazolo[5,4-c]pyridin-5(4H)-yl)-2-(cyclopentyloxy)propan-1-one], the activity at 3 µM was -9%.

Take `O=C(c1cccc(F)c1)N1CCc2nc(N3C4CCC3CNC4)sc2C1` [Example 235, (2-(3,8-diazabicyclo[3.2.1]octan-8-yl)-6,7-dihydrothiazolo[5,4-c]pyridin-5(4H)-yl)(3-fluorophenyl)methanone]: the activity at 3 µM was -3%.

Consider `CC(C)(C#N)CC(=O)N1CCc2nc(N3C4CCC3CNC4)sc2C1` [Example 178, 4-(2-(3,8-diazabicyclo[3.2.1]octan-8-yl)-6,7-dihydrothiazolo[5,4-c]pyridin-5(4H)-yl)-2,2-dimethyl-4-oxobutanenitrile], for which the activity at 3 µM turned out to be 24%.

In the case of `O=C(c1ccc(F)cn1)N1CCc2nc(N3C4CCC3CNC4)sc2C1` [Example 202, (2-(3,8-diazabicyclo[3.2.1]octan-8-yl)-6,7-dihydrothiazolo[5,4-c]pyridin-5(4H)-yl)(5-fluoropyridin-2-yl)methanone], the activity at 3 µM was -4%.

`COC(C(=O)N1CCc2nc(N3C4CCC3CNC4)sc2C1)C1CCCC1` (centres unmarked) [Example 157, 1-(2-(3,8-diazabicyclo[3.2.1]octan-8-yl)-6,7-dihydrothiazolo[5,4-c]pyridin-5(4H)-yl)-2-cyclopentyl-2-methoxyethan-1-one]: the activity at 3 µM was determined as 17%.

With `O=C(c1nccc2ccccc12)N1CCc2nc(N3C4CCC3CNC4)sc2C1` [Example 186, (2-(3,8-diazabicyclo[3.2.1]octan-8-yl)-6,7-dihydrothiazolo[5,4-c]pyridin-5(4H)-yl)(isoquinolin-1-yl)methanone], the activity at 3 µM is 0%.

Consider `COc1cc(C)ccc1C(=O)N1CCc2nc(N3C4CCC3CNC4)sc2C1` [Example 219, (2-(3,8-diazabicyclo[3.2.1]octan-8-yl)-6,7-dihydrothiazolo[5,4-c]pyridin-5(4H)-yl)(2-methoxy-4-methylphenyl)methanone], for which the activity at 3 µM came to 11%.

With `Cc1ccc(C(=O)N2CCc3nc(N4C5CCC4CNC5)sc3C2)c(C)c1` [Example 225, (2-(3,8-diazabicyclo[3.2.1]octan-8-yl)-6,7-dihydrothiazolo[5,4-c]pyridin-5(4H)-yl)(2,4-dimethylphenyl)methanone], the activity at 3 µM is -1%.

Turning to `N#Cc1ccc(C(=O)N2CCc3nc(N4C5CCC4CNC5)sc3C2)cc1` [Example 239, 4-(2-(3,8-diazabicyclo[3.2.1]octan-8-yl)-4,5,6,7-tetrahydrothiazolo[5,4-c]pyridine-5-carbonyl)benzonitrile], the activity at 3 µM was -2%.

With `N#Cc1ccccc1OCC(=O)N1CCc2nc(N3C4CCC3CNC4)sc2C1` [Example 167, 2-(2-(2-(3,8-diazabicyclo[3.2.1]octan-8-yl)-6,7-dihydrothiazolo[5,4-c]pyridin-5(4H)-yl)-2-oxoethoxy)benzonitrile], the activity at 3 µM came to 19%.

Consider `O=C(c1cc2ccccc2o1)N1CCc2nc(N3C4CCC3CNC4)sc2C1` [Example 185, (2-(3,8-diazabicyclo[3.2.1]octan-8-yl)-6,7-dihydrothiazolo[5,4-c]pyridin-5(4H)-yl)(benzofuran-2-yl)methanone], for which the activity at 3 µM is -2%.

`O=C(c1nc2ccccc2o1)N1CCc2nc(N3C4CCC3CNC4)sc2C1` [Example 190, (2-(3,8-diazabicyclo[3.2.1]octan-8-yl)-6,7-dihydrothiazolo[5,4-c]pyridin-5(4H)-yl)(benzo[d]oxazol-2-yl)methanone]: the activity at 3 µM stood at 1%.

In the case of `COc1cc(F)ccc1C(=O)N1CCc2nc(N3C4CCC3CNC4)sc2C1` [Example 222, (2-(3,8-diazabicyclo[3.2.1]octan-8-yl)-6,7-dihydrothiazolo[5,4-c]pyridin-5(4H)-yl)(4-fluoro-2-methoxyphenyl)methanone], the activity at 3 µM stood at 4%.

`O=C(C1CC12CCCC2)N1CCc2nc(N3C4CCC3CNC4)sc2C1` (centres unmarked) [Example 162, (2-(3,8-diazabicyclo[3.2.1]octan-8-yl)-6,7-dihydrothiazolo[5,4-c]pyridin-5(4H)-yl)(spiro[2.4]heptan-1-yl)methanone]: the activity at 3 µM amounted to 14%.

Regarding `CCN1CC2CCC(C1)N2c1nc2c(s1)CN(C(=O)N[C@@H]1CCOc3ccccc31)CC2` [Example 295, N—((R)-chroman-4-yl)-2-(3-ethyl-3,8-diazabicyclo[3.2.1]octan-8-yl)-6,7-dihydrothiazolo[5,4-c]pyridine-5(4H)-carboxamide], the activity at 3 µM was -4%.

In the case of `O=C(c1ccccc1OC(F)(F)F)N1CCc2nc(N3C4CCC3CNC4)sc2C1` [Example 207, (2-(3,8-diazabicyclo[3.2.1]octan-8-yl)-6,7-dihydrothiazolo[5,4-c]pyridin-5(4H)-yl)(2-(trifluoromethoxy)phenyl)methanone], the activity at 3 µM was 0%.

For the molecule `O=C(C1COc2ccccc2O1)N1CCc2nc(N3C4CCC3CNC4)sc2C1` (centres unmarked) [Example 180, (2-(3,8-diazabicyclo[3.2.1]octan-8-yl)-6,7-dihydrothiazolo[5,4-c]pyridin-5(4H)-yl)(2,3-dihydrobenzo[b][1,4]dioxin-2-yl)methanone], the activity at 3 µM is 2%.

For `O=C(CC12CCC(CC1)C2)N1CCc2nc(N3C4CCC3CNC4)sc2C1` [Example 160, 1-(2-(3,8-diazabicyclo[3.2.1]octan-8-yl)-6,7-dihydrothiazolo[5,4-c]pyridin-5(4H)-yl)-2-(bicyclo[2.2.1]heptan-1-yl)ethan-1-one], the activity at 3 µM was -2%.

With `COCCOc1ccccc1OCC(=O)N1CCc2nc(N3C4CCC3CNC4)sc2C1` [Example 129, 1-(2-(3,8-diazabicyclo[3.2.1]octan-8-yl)-6,7-dihydrothiazolo[5,4-c]pyridin-5(4H)-yl)-2-(2-(2-methoxyethoxy)phenoxy)ethan-1-one], the activity at 3 µM was 3%.

As for `O=C(c1ccc(C(F)F)cc1)N1CCc2nc(N3C4CCC3CNC4)sc2C1` [Example 229, (2-(3,8-diazabicyclo[3.2.1]octan-8-yl)-6,7-dihydrothiazolo[5,4-c]pyridin-5(4H)-yl)(4-(difluoromethyl)phenyl)methanone], the activity at 3 µM is -1%.

The same assay, now with this note: Mus musculus, mIMCD3, 144 h, 10 μM; mean cyst area, 100% for (DMSO + PGE2) and 0% for DMSO control; 6 days of culture; read-out: % Cyst area after incubation with 10 μM test compound.
Turning to `O=C(CC1CCC(F)(F)CC1)N1CCn2nc(N3C4CCC3CNC4)nc2C1` [Example 97, 1-(2-(3,8-diazabicyclo[3.2.1]octan-8-yl)-5,6-dihydro-[1,2,4]triazolo[1,5-a]pyrazin-7 (8H)-yl)-2-(4,4-difluorocyclohexyl)ethan-1-one], the activity at 10 µM worked out at 6%.

Regarding `O=C(C1CCCC1)N1CCc2nc(N3C4CCC3CNC4)sc2C1` [Example 22, (2-(3,8-diazabicyclo[3.2.1]octan-8-yl)-6,7-dihydrothiazolo[5,4-c]pyridin-5(4H)-yl)(cyclopentyl)methanone], the activity at 10 µM was -2%.

On to `CC(C)C(=O)N1CCc2nc(N3C4CCC3CNC4)sc2C1` [Example 20, 1-(2-(3,8-diazabicyclo[3.2.1]octan-8-yl)-6,7-dihydrothiazolo[5,4-c]pyridin-5(4H)-yl)-2-methylpropan-1-one], for which the activity at 10 µM came out at 9%.

Take `O=C(CC1CCC1)N1CCc2nc(N3C4CCC3CNC4)sc2C1` [Example 11, 1-(2-(3,8-diazabicyclo[3.2.1]octan-8-yl)-6,7-dihydrothiazolo[5,4-c]pyridin-5(4H)-yl)-2-cyclobutylethan-1-one]: the activity at 10 µM was -3%.

Consider `O=C(CC1CCCC1)N1CCc2nc(N3CCNCC3)sc2C1` [Example 109, 2-cyclopentyl-1-(2-(piperazin-1-yl)-6,7-dihydrothiazolo[5,4-c]pyridin-5(4H)-yl)ethan-1-one], for which the activity at 10 µM came to 6%.

For the molecule `CCC(C)(C)C(=O)N1CCc2nc(N3C4CCC3CNC4)sc2C1` [Example 154, 1-(2-(3,8-diazabicyclo[3.2.1]octan-8-yl)-6,7-dihydrothiazolo[5,4-c]pyridin-5(4H)-yl)-2,2-dimethylbutan-1-one], the activity at 10 µM is -13%.

For the molecule `O=C(Nc1ccccc1)N1CCc2nc(N3C4CCC3CNC4)sc2C1` [Example 57, 2-(3,8-diazabicyclo[3.2.1]octan-8-yl)-N-phenyl-6,7-dihydrothiazolo[5,4-c]pyridine-5(4H)-carboxamide], the activity at 10 µM was -3%.

Regarding `O=C(COc1ccc(F)cc1)N1CCc2nc(N3C4CCC3CNC4)sc2C1` [Example 21, 1-(2-(3,8-diazabicyclo[3.2.1]octan-8-yl)-6,7-dihydrothiazolo[5,4-c]pyridin-5(4H)-yl)-2-(4-fluorophenoxy)ethan-1-one], the activity at 10 µM was -1%.

As to `CC1(C(=O)N2CCc3nc(N4C5CCC4CNC5)sc3C2)CCCC1` [Example 150, (2-(3,8-diazabicyclo[3.2.1]octan-8-yl)-6,7-dihydrothiazolo[5,4-c]pyridin-5(4H)-yl)(1-methylcyclopentyl)methanone], the activity at 10 µM turned out to be 1%.

As to `CN1CC2CCC(C1)N2c1nc2c(s1)CN(C(=O)CC1CCCC1)C2` [Example 83, 2-cyclopentyl-1-(2-(3-methyl-3,8-diazabicyclo[3.2.1]octan-8-yl)-4,6-dihydro-5H-pyrrolo[3,4-d]thiazol-5-yl)ethan-1-one], the activity at 10 µM was determined as 4%.

Regarding `O=C(CC(F)(F)F)N1CCc2nc(N3C4CCC3CNC4)sc2C1` [Example 26, 1-(2-(3,8-diazabicyclo[3.2.1]octan-8-yl)-6,7-dihydrothiazolo[5,4-c]pyridin-5(4H)-yl)-3,3,3-trifluoropropan-1-one], the activity at 10 µM was found to be 1%.

Take `CN1CC2CCC(C1)N2c1nc2c(s1)CN(C(=O)CC1CCCC1)CC2(C)C` [Example 102, 2-cyclopentyl-1-(7,7-dimethyl-2-(3-methyl-3,8-diazabicyclo[3.2.1]octan-8-yl)-6,7-dihydrothiazolo[5,4-c]pyridin-5(4H)-yl)ethan-1-one]: the activity at 10 µM is -3%.
